Experimental data taken from publication PMC3534858 (Bioorganic & medicinal chemistry letters, 2012).

Legend:
mouse TP receptor = molecular target: T1, mouse TP receptor (Mus musculus, UniProt P30987); assay: Suppression of signaling through mouse TP receptor; format: cell-based
T1 sequence (P30987 1-341): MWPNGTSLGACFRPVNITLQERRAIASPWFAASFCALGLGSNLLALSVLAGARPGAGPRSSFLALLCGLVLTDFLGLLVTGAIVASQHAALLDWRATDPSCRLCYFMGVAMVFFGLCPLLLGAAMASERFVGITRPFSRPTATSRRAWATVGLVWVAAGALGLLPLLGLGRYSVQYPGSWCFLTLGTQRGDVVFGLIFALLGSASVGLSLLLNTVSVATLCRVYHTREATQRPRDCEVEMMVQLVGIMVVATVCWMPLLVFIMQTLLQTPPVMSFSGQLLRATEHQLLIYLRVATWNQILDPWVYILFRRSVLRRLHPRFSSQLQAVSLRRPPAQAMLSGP

[1] = Intrinsic clearance by mouse liver microsomes; format: in vitro ADME; conditions: for CLHEP (predicted hepatic clearance): estimated from Clint, mouse hepatic blood flow QH 90 mL/min/kg
[2] = test system: phenylephrine vasoconstriction; assay: Phenylephrine pressor response control in anesthetized mice; format: in vivo, mouse; conditions: phenylephrine 10 μg/kg; data not shown
[3] = Metabolite identification in hepatic subcellular fractions; format: in vitro ADME; conditions: NADPH-independent hydrolysis and NADPH-dependent oxidation
mouse EP1 receptor = molecular target: T2, mouse EP1 receptor (Mus musculus, UniProt P35375); conditions: for Schild regression slope m: representative experiment, six antagonist concentrations, agonist 17PTPGE2
T2 sequence (P35375 1-405): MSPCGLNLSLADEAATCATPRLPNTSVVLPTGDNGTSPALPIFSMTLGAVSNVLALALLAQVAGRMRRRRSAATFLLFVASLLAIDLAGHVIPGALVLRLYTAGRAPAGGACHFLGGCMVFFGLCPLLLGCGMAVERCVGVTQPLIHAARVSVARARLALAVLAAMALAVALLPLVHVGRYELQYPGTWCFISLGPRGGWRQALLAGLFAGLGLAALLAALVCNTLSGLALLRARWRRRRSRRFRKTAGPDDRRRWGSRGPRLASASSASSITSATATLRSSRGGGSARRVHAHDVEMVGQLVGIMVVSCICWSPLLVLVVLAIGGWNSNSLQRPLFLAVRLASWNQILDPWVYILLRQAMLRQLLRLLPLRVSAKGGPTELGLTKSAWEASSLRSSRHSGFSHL

[4] = In vivo pharmacokinetics of 7 in mice; conditions: mouse, plasma, iv, 1 mg/kg
human EP1 receptor = conditions: cited from earlier work
[5] = test system: human thromboxane (TP) receptor; conditions: cited from earlier work
[6] = several species; cited from earlier work

Row | IC50 (mouse TP receptor) | CLHEP (predicted hepatic clearance) [1] | CLint scaled ([1]; mouse, liver microsomes) | Structure (SMILES) | other results
1 | > 1000 nM | 87.4 mL/min/kg | 2990 mL/min/kg | O=C(NS(=O)(=O)c1ccc(Cl)c(Cl)c1)c1cccc(Cc2cc(Cl)ccc2OCc2ccc(Cl)cc2F)n1 [Compound 21] | –
2 | > 1000 nM | 86.6 mL/min/kg | 2260 mL/min/kg | O=C(NS(=O)(=O)c1ccc(Cl)cc1)c1cccc(Cc2cc(Cl)ccc2OCc2ccc(Cl)cc2F)n1 [Compound 17] | Clint (intrinsic clearance) ([1]; mouse, liver microsomes): less stable in mouse hepatic microsomes than 7; Effect of pretreatment on phenylephrine pressor activity [2]: unaffected; Biotransformation in metabolite identification studies [3]: extensive biotransformation; Kd (mouse EP1 receptor): 86.5 nM; Schild regression slope m (mouse EP1 receptor): 1.20 ± 0.12
3 | > 1000 nM | – | – | O=C(NS(=O)(=O)c1cc(Cl)ccc1Cl)c1cccc(Cc2cc(Cl)ccc2OCc2ccc(Cl)cc2F)n1 [Compound 18] | –
4 | > 1000 nM | – | – | O=C(NC1CCC1)c1cccc(Cc2cc(Cl)ccc2OCc2ccc(Cl)cc2F)n1 [Compound 10] | –
5 | 912 nM | 43.6 mL/min/kg | 84.7 mL/min/kg | O=C(O)c1cccc(Cc2cc(Cl)ccc2OCc2ccc(Cl)cc2F)n1 [Compound 7, reference compound] | Concentration suppressing mouse TP signaling relative to human receptor (mouse TP receptor; mouse TP vs human TP): 100 fold; half-life [4]: > 1 h; Affinity for the human EP1 receptor (human EP1 receptor): good affinity; Interaction with the human thromboxane (TP) receptor [5]: high-affinity interaction; Stability in microsomes and S9 fractions [6]: stable; Kd (mouse EP1 receptor): 52.1 nM; Functional antagonism of mEP1 in vitro (mouse EP1 receptor; Schild analysis): functional antagonist of mEP1; Schild regression slope m (mouse EP1 receptor): 0.953 ± 0.085
6 | > 1000 nM | – | – | CC(C)(C)NC(=O)c1cccc(Cc2cc(Cl)ccc2OCc2ccc(Cl)cc2F)n1 [Compound 13] | –
7 | > 1000 nM | 88.4 mL/min/kg | 5040 mL/min/kg | Cc1ccc(S(=O)(=O)NC(=O)c2cccc(Cc3cc(Cl)ccc3OCc3ccc(Cl)cc3F)n2)cc1 [Compound 19] | –
8 | > 1000 nM | – | – | CCC(C)NC(=O)c1cccc(Cc2cc(Cl)ccc2OCc2ccc(Cl)cc2F)n1 (centres unmarked) [Compound 12] | –
9 | > 1000 nM | – | – | NC(=O)c1cccc(Cc2cc(Cl)ccc2OCc2ccc(Cl)cc2F)n1 [Compound 16] | –
10 | > 1000 nM | 89.3 mL/min/kg | 11400 mL/min/kg | O=C(NCC1CC1)c1cccc(Cc2cc(Cl)ccc2OCc2ccc(Cl)cc2F)n1 [Compound 8] | –
11 | > 1000 nM | 88.9 mL/min/kg | 7160 mL/min/kg | CCN(CC)C(=O)c1cccc(Cc2cc(Cl)ccc2OCc2ccc(Cl)cc2F)n1 [Compound 14] | –
12 | > 1000 nM | – | – | O=C(c1cccc(Cc2cc(Cl)ccc2OCc2ccc(Cl)cc2F)n1)N1CCCC1 [Compound 9] | mEP1 pKD (mouse EP1 receptor; Schild analysis, mean ± SEM of at least two independent experiments in duplicate): 4.80 ± 0.05
13 | > 1000 nM | – | – | O=C(NC1CC2CCC1C2)c1cccc(Cc2cc(Cl)ccc2OCc2ccc(Cl)cc2F)n1 (centres unmarked) [Compound 15] | –
14 | > 1000 nM | 89.2 mL/min/kg | 9810 mL/min/kg | CC(C)CNC(=O)c1cccc(Cc2cc(Cl)ccc2OCc2ccc(Cl)cc2F)n1 [Compound 11] | Biotransformation in metabolite identification studies [3]: extensive biotransformation
15 | > 1000 nM | – | – | CCCS(=O)(=O)NC(=O)c1cccc(Cc2cc(Cl)ccc2OCc2ccc(Cl)cc2F)n1 [Compound 20] | –
